This is an account of results in publication PMC5587909, “Inhibition of the ATP Synthase Eliminates the Intrinsic Resistance of Staphylococcus aureus towards Polymyxins” (mBio, 2017).

≈ marks a conversion by molar mass, not a printed value.

In one assay the test system is S. aureus. The conditions noted are these: cited from earlier work.
The test system of assay [1] is S. aureus JE2 vraF mutant. In kind it is cell-based, Staphylococcus aureus. An excerpt: (§1) The strains used in this study include S. aureus strain JE2 (plasmid-cured derivative of USA300 LAC) and all derivative strains within the Nebraska Transposon Mutant Library (NTML), consisting of 1,920 unique transposon mutants with inactivation of nonessential genes ([15]). The bursa aurealis transposon used to create the collection contains the resistance cassette ermB, which confers resistance to erythromycin ([15]). Additionally we used S. aureus SA113 and two derivatives, SA113 ΔdltA ([9]) and SA113 ΔmprF ([10]). All bacterial strains were cultured at 37°C in tryptic soy broth (TSB) or on tryptic soy agar (TSA), with antimicrobial agents added as indicated. Two methods have been employed to determine MICs to various antimicrobial agents. (i) A 2-fold broth microdilution assay in TSB (100 µl) with an initial inoculum of approximately 5 × 10^5 cells/ml was employed to determine the MICs of polymyxin B sulfate (Sigma), gallidermin (Santa Cruz Biotechnology), nisin (Sigma), bacitracin (Sigma), and LL-37 (Isca Biochemicals). (ii) An Etest (BioMérieux) performed on TSA plates was employed to determine MICs for polymyxin B, colistin, ciprofloxacin, oxacillin, linezolid, gentamicin, vancomycin, and daptomycin. The MIC was determined upon incubation at 37°C for 22 h. When indicated, the Etest (BioMérieux) was performed on Mueller-Hinton agar plates (cation adjusted for calcium and magnesium).

For assay [2], the system named is S. aureus JE2 (WT). In kind it is cell-based, Staphylococcus aureus. The conditions noted are these: 2-fold broth microdilution in TSB (100 µl), inoculum approx. 5 × 10^5 cells/ml, 37°C, 22 h.
From the text: as §1

For assay [3], the system named is S. aureus JE2 graR mutant. The assay is classed as cell-based, Staphylococcus aureus.
From the text: as §1

Assay [4] concerns S. aureus JE2 vraG mutant. The assay is classed as cell-based, Staphylococcus aureus. The conditions noted are these: 2-fold broth microdilution in TSB (100 µl), inoculum approx. 5 × 10^5 cells/ml, 37°C, 22 h.
From the text: as §1
In general terms: In broth dilution the organism is exposed to a series of concentrations in liquid medium.

The test system of assay [5] is S. aureus JE2 atpA mutant. In kind it is cell-based, Staphylococcus aureus. The conditions noted are these: 2-fold broth microdilution in TSB (100 µl), inoculum approx. 5 × 10^5 cells/ml, 37°C, 22 h.
From the text: as §1

The subject of assay [6] is S. aureus JE2 (WT). Nature of the assay: Kill curve experiment, polymyxin B with or without oligomycin A. In kind it is cell-based, Staphylococcus aureus. The conditions noted are these: WT JE2 in TSB; oligomycin A alone at 8 μg/ml. An excerpt: The ATP synthase is a well-described protein complex, and multiple inhibitors have been identified that interfere with its function—e.g., the macrolide oligomycin A ([32]). […] The combinatory efficacy of PMB and oligomycin A is similar to the observed killing efficacy of PMB against the atpA mutant.
FIG 4 Improved killing efficacy of PMB upon inhibition of the ATP synthase. […] The data represent the average from three measurements, with error bars showing 95% confidence intervals.
From overnight cultures of S. aureus JE2 and the derivative atpA mutant, 100 μl was diluted into 900 μl fresh TSB medium in a Falcon tube and grown for 1 h for the cells to reach the early exponential phase. After 1 h, the cultures were diluted into 10 ml fresh TSB medium in 100-ml Erlenmeyer flasks, reaching an initial cell count of approximately 10^6 cells/ml. Oligomycin A (Sigma) was added to flasks as indicated at a concentration of 8 μg/ml. […] CFU were determined on TSA plates before addition of oligomycin A (time zero [T0]), before addition of polymyxin B (time 30 min [T30]), and every hour for the following 4 h.

In assay [7] the test system is mitochondrial ATP synthase. The conditions noted are these: cited from earlier work.

For `COc1nc2ccc(Br)cc2cc1[C@@H](c1ccccc1)[C@@](O)(CCN(C)C)c1cccc2ccccc12` [Bedaquiline, bedaquiline], in the assay with S. aureus, the “activity against S. aureus” value was “limited or no activity”.

Consider `CC[C@H](C)[C@H](NC(=O)[C@H](CCCCN)NC(=O)[C@H](CCC(=O)O)NC(=O)[C@H](CCCCN)NC(=O)[C@H](CO)NC(=O)[C@H](CCCCN)NC(=O)[C@H](CCCNC(=N)N)NC(=O)[C@H](Cc1ccccc1)NC(=O)[C@H](Cc1ccccc1)NC(=O)[C@H](CC(=O)O)NC(=O)CNC(=O)[C@H](CC(C)C)NC(=O)[C@@H](N)CC(C)C)C(=O)NCC(=O)N[C@@H](CCCCN)C(=O)N[C@@H](CCC(=O)O)C(=O)N[C@@H](Cc1ccccc1)C(=O)N[C@@H](CCCCN)C(=O)N[C@@H](CCCNC(=N)N)C(=O)N[C@H](C(=O)N[C@H](C(=O)N[C@@H](CCC(N)=O)C(=O)N[C@@H](CCCNC(=N)N)C(=O)N[C@H](C(=O)N[C@@H](CCCCN)C(=O)N[C@@H](CC(=O)O)C(=O)N[C@@H](Cc1ccccc1)C(=O)N[C@@H](CC(C)C)C(=O)N[C@@H](CCCNC(=N)N)C(=O)N[C@@H](CC(N)=O)C(=O)N[C@@H](CC(C)C)C(=O)N[C@H](C(=O)N1CCC[C@H]1C(=O)N[C@@H](CCCNC(=N)N)C(=O)N[C@H](C(=O)N[C@@H](CCC(=O)O)C(=O)N[C@@H](CO)C(=O)O)[C@@H](C)O)C(C)C)[C@@H](C)CC)C(C)C)[C@@H](C)CC` [LL-37], for which, in assay [1] (2-fold broth microdilution in TSB (100 µl), inoculum approx. 5 × 10^5 cells/ml, 37°C, 22 h, vraF mutant), the “MIC, vraF” value was 64 µg/mL (≈ 14.2 µM). For the same compound, the “fold increased sensitivity relative to WT” value is on record as “at least 2 fold” in assay [1] (vraF mutant vs WT JE2, broth microdilution in TSB) and “at least 2 fold” in assay [3] (graR mutant vs WT JE2, broth microdilution in TSB). For the same compound, in the assay on S. aureus JE2 (WT) [2], the “MIC, WT” value is greater than 128 µg/mL. Besides, the “MIC, graR” value in assay [3] (2-fold broth microdilution in TSB (100 µl), inoculum approx. 5 × 10^5 cells/ml, 37°C, 22 h, graR mutant) is 64 µg/mL (≈ 14.2 µM). The “MIC, vraG” value in assay [4] was determined as 128 µg/mL (≈ 28.5 µM). In assay [5], the “MIC, atpA” value was greater than 128 µg/mL.

For oligomycin A, in the assay on S. aureus JE2 (WT) [6], the “killing efficacy (CFU over time)” value is reported as “did not display any killing efficacy”. In assay [7], the “inhibition of the mitochondrial ATP synthase (nonselective)” value was “inhibits the mitochondrial ATP synthase”.
